Where a name gives a salt, the structure may show the parent alone.
How the values were obtained:
Candida albicans [1] = test: Activity against vaginal candidosis in rats (lowest oral dose active at the 14th day after infection); type: in vivo, Female Wistar rats; parameters: lowest effective oral dose (vaginal candidosis in rats): unit not given here; conditions: oral once a day for two days, active at 14th day after infection; for minimal effective dose: Candida albicans, 336 h; for lowest effective oral dose (vaginal candidosis in rats): Table I
Procedure: Experiment A: Activity of Compounds (I) Against Vaginal Candidosis in Rats
Female Wistar rats of ±100 g body weight were used. They were ovariectomized and hysterectomized and after three weeks of recovery, 100 μg of oestradiol undecylate in sesame oil was given subcutaneously once a week for 3 consecutive weeks. The thus induced pseudooestrus was controlled by microscopic examination of vaginal smears. Food and water were left available ad libitum.
The rats were infected intravaginally with 8.10^5 cells of Candida albicans, grown on Sabouraud broth for 48 hours at 37° C. and diluted with saline. The date of infection varied from day +25 to day +32 after surgical intervention, depending on the appearance of signs of induced pseudo-oestrus.
The drugs under investigation were administered orally once a day for two days starting from the day of infection. For each experiment there were placebo treated controls. The results were assessed by taking vaginal smears with sterile swabs on several days after infection. The swabs were put into Sabouraud broth in petri-dishes and incubated for 48 hours a 37° C. If no growth of Candida albicans occured, i.e., when the animals were negative at the end of the experiment, this was due to drug administration because it never happened in placebo treated controls.
The Tables I, II and III below give the lowest oral dose of the drug under investigation which was found active at the 14th day after infection.

Candida albicans [2] = test: Activity against crop candidosis in turkeys (dose whereby crops of 50% of animals were completely negative); type: in vivo; conditions: medicated feed for 13 consecutive days
Procedure: Experiment B: Activity of Compounds (I) Against Crop Candidosis in Turkeys
Turkeys of 14 days old were infected in the crop with 4.10^6 Candida albicans cells, grown on Sabouraud broth for 48 hours at 37° C. and diluted with saline. The volume of the inoculum was 1 ml. The drug under investigation were premixed in 500 mg of lacton and thereafter admixed in 1000 g of meal without any additives. The concentration of the drug under investigation in the meal was expressed in mg/kg.
The animals were given the medicated feed for 13 consecutive days starting on the day of infection. At the end of the experiment all animals were sacrificed. At autopsy the crops were removed, emptied and grinded in an ultra-turrax mixer in 15 ml of sterile saline. Colony counting was done on Sabouraud agar and the results given in the Tables I, II and III represent the ED50, i.e., the dose of the drug whereby the crops of 50% of the animals were completely negative for Candida albicans.

Compound | lowest effective oral dose (vaginal candidosis in rats) (Candida albicans [1]) | ED50 (crop candidosis in turkeys) (Candida albicans [2]; Table I) | further results
CN1CCN(c2ccc(OC[C@H]3CO[C@](Cn4cncn4)(c4ccc(Cl)cc4Cl)O3)cc2)CC1 (relative stereo) [CH3] | – | – | minimal effective dose (Candida albicans [1]; Table II): 1.25 mg/kg; ED50 (crop candidosis in turkeys) (Candida albicans [2]; Table II): 16 mg/kg of feed
CNC(=S)Nc1ccc(OC[C@H]2CO[C@](Cn3ccnc3)(c3ccc(Cl)cc3Cl)O2)cc1 (relative stereo) [NHCSNHCH3, cis-N-{4-[2-(2,4-dichlorophenyl)-2-(1H-imidzol-1-yl-methyl)-1,3-dioxolan-4-ylmethoxy]-phenyl}-N'-methylthiourea] | 10 | 125 mg/kg of feed | –
CCCNC(=O)N1CCN(c2ccc(OC[C@H]3CO[C@](Cn4ccnc4)(c4ccc(Cl)cc4Cl)O3)cc2)CC1 (relative stereo) [cis-4-{4-[2-(2,4-dichlorophenyl)-2-(1H-imidazol-1-yl-methyl)-1,3-dioxolan-4-ylmethoxy]phenyl}-N-propyl-1-piperazinecarboxamide dihydrate] | 2.5 | 125 mg/kg of feed | –
CC(=O)N1CCN(c2ccc(OC[C@H]3CO[C@](Cn4cncn4)(c4ccc(Cl)cc4Cl)O3)cc2)CC1 (relative stereo) [COCH3, cis-1-acetyl-4-{4-[2-(2,4-dichlorophenyl)-2-(1H-1,2,4-triazol-1-ylmethyl)-1,3-dioxolan-4-yl-methoxy]phenyl}piperazine] | – | – | minimal effective dose (Candida albicans [1]; Table II): 1.25 mg/kg; ED50 (crop candidosis in turkeys) (Candida albicans [2]; Table II): 8 mg/kg of feed
NC(=O)CN1CCN(c2ccc(OC[C@H]3CO[C@](Cn4ccnc4)(c4ccc(Cl)cc4Cl)O3)cc2)CC1 (relative stereo) | 1.25 | – | –
CC(=O)Nc1ccc(OC[C@H]2CO[C@](Cn3ccnc3)(c3ccc(Cl)cc3Cl)O2)cc1 (relative stereo) [NHCOCH3, cis-N-{4-[2-(2,4-dichlorophenyl)-2-(1H-imidazol-1-ylmethyl)-1,3-dioxolan-4-ylmethoxy]phenyl}acetamide] | 5 | 31 mg/kg of feed | –
Clc1ccc([C@@]2(Cn3ccnc3)OC[C@H](COc3ccc(N4CCNCC4)cc3)O2)c(Cl)c1 (relative stereo) | 5 | 125 mg/kg of feed | –
CCNC(=S)Nc1ccc(OC[C@H]2CO[C@](Cn3ccnc3)(c3ccc(Cl)cc3Cl)O2)cc1 (relative stereo) [NHCSNHC2 H5, cis-N-{4-[2-(2,4-dichlorophenyl)-2-(1H-imidazol-1-ylmethyl)-1,3-dioxolan-4-ylmethoxy]phenyl}-N'-ethylthiourea] | 5 | 125 mg/kg of feed | –
CCOC(=O)N1CCN(c2ccc(OC[C@H]3CO[C@](Cn4ccnc4)(c4ccc(Cl)cc4Cl)O3)cc2)CC1 (relative stereo) [drawing 39, cis-ethyl 4-{4-[2-(2,4-dichlorophenyl)-2-(1H-imidazol-1-ylmethyl)-1,3-dioxolan-4-ylmethoxy]phenyl}-1-piperazinecarboxylate dihydrochloride hemihydrate] | – | – | lowest effective oral dose (vaginal candidosis in rats) (Candida albicans [1]; dihydrochloride hemihydrate): 10; ED50 (crop candidosis in turkeys) (Candida albicans [2]; Table I, dihydrochloride hemihydrate): 31 mg/kg of feed
CS(=O)(=O)N1CCN(c2ccc(OC[C@H]3CO[C@](Cn4cncn4)(c4ccc(Cl)cc4Cl)O3)cc2)CC1 (relative stereo) [SO2CH3] | – | – | minimal effective dose (Candida albicans [1]; Table II): 1.25 mg/kg; ED50 (crop candidosis in turkeys) (Candida albicans [2]; Table II): 31 mg/kg of feed
CC(=O)Nc1cccc(OC[C@H]2CO[C@](Cn3ccnc3)(c3ccc(Cl)cc3Cl)O2)c1 (relative stereo) [3 (NHCOCH3), cis-N-{3-[2-(2,4-dichlorophenyl)-2-(1H-imidazol-1-ylmethyl)-1,3-dioxolan-4-ylmethoxy]phenyl}acetamide nitrate] | – | – | minimal effective dose (Candida albicans [1]; Table III): 10 mg/kg; ED50 (crop candidosis in turkeys) (Candida albicans [2]; Table III): 63 mg/kg of feed
O=C(Nc1ccc(OC[C@H]2CO[C@](Cn3ccnc3)(c3ccc(Cl)cc3Cl)O2)cc1)Oc1ccccc1 (relative stereo) | 10 | 125 mg/kg of feed | –
O=CN1CCN(c2ccc(OC[C@H]3CO[C@](Cn4cncn4)(c4ccc(Cl)cc4Cl)O3)cc2)CC1 (relative stereo) [CHO, cis-4-{4-[2-(2,4-dichlorophenyl)-2-(1H-1,2,4-triazol-1-ylmethyl)-1,3-dioxolan-4-ylmethoxy]phenyl}-1-piperazinecarboxaldehyde] | – | – | minimal effective dose (Candida albicans [1]; Table II): 1.25 mg/kg; ED50 (crop candidosis in turkeys) (Candida albicans [2]; Table II): 16 mg/kg of feed
O=CNc1ccc(OC[C@H]2CO[C@](Cn3ccnc3)(c3ccc(Cl)cc3Cl)O2)cc1 (relative stereo) [NHCHO, cis-N-{4-[2-(2,4-dichlorophenyl)-2-(1H-imidazol-1-yl-methyl)-1,3-dioxolan-4-ylmethoxy]phenyl}formamide] | 2.5 | 31 mg/kg of feed | –
COc1ccc(C(=O)Nc2ccc(OC[C@H]3CO[C@](Cn4ccnc4)(c4ccc(Cl)cc4Cl)O3)cc2)cc1 (relative stereo) | 40 | 16 mg/kg of feed | –
O=C(c1ccccc1)N1CCN(c2ccc(OC[C@H]3CO[C@](Cn4cncn4)(c4ccc(Cl)cc4Cl)O3)cc2)CC1 (relative stereo) [COC6 H5, cis-1-benzoyl-4-{4-[2-(2,4-dichlorophenyl)-2-(1H-1,2,4-triazol-1-ylmethyl)-1,3-dioxolan-4-ylmethoxy]phenyl}piperazine] | – | – | minimal effective dose (Candida albicans [1]; Table II): 1.25 mg/kg
CC(C)N1CCN(c2ccc(OC[C@H]3CO[C@](Cn4cncn4)(c4ccc(Cl)cc4Cl)O3)cc2)CC1 (relative stereo) [CH(CH3)2] | – | – | minimal effective dose (Candida albicans [1]; Table II): 2.5 mg/kg
O=CN1CCN(c2ccc(OC[C@H]3CO[C@](Cn4ccnc4)(c4ccc(Cl)cc4Cl)O3)cc2)CC1 (relative stereo) | < 10 | – | –
CCOC(=O)N1CCN(c2cccc(OC[C@H]3CO[C@](Cn4ccnc4)(c4ccc(Cl)cc4Cl)O3)c2)CC1 (relative stereo) | – | – | minimal effective dose (Candida albicans [1]; Table III): 2.5 mg/kg
CNc1ccc(OC[C@H]2CO[C@](Cn3ccnc3)(c3ccc(Cl)cc3Cl)O2)cc1 (relative stereo) [NHCH3, cis-4-[2-(2,4-dichlorophenyl)-2-(1H-imidazol-1-ylmethyl)-1,3-dioxolan-4-ylmethoxy]-N-methylbenzenamine] | 5 | – | –
NC(=S)Nc1ccc(OC[C@H]2CO[C@](Cn3ccnc3)(c3ccc(Cl)cc3Cl)O2)cc1 (relative stereo) [NHCSNH2, cis-N-{4-[2-(2,4-dichlorophenyl)-2-(1H-imidazol-1-yl-methyl)-1,3-dioxolan-4-ylmethoxy]phenyl}thiourea] | 20 | – | –
CCOC(=O)N1CCN(c2ccc(OCC3COC(Cn4ccnc4)(c4ccc(OC)cc4)O3)cc2)CC1 (stereo not drawn) [ethyl 4-{4-[2-(1H-imidazol-1-ylmethyl)-2-(4-methoxyphenyl)-1,3-dioxolan-4-ylmethoxy]phenyl}-1-piperazinecarboxylate (E)-2-butenedioate (2:1)] | – | – | minimal effective dose (Candida albicans [1]; Table III): 2.5 mg/kg
CC(C)N1CCN(c2ccc(OC[C@H]3CO[C@](Cn4ccnc4)(c4ccc(Cl)cc4Cl)O3)cc2)CC1 (relative stereo) | 2.5 | – | –
CN1CCN(c2ccc(OC[C@H]3CO[C@](Cn4ccnc4)(c4ccc(Cl)cc4Cl)O3)cc2)CC1 (relative stereo) | 2.5 | – | –
CCN1CCN(c2ccc(OC[C@H]3CO[C@](Cn4ccnc4)(c4ccc(Cl)cc4Cl)O3)cc2)CC1 (relative stereo) [drawing 49] | < 2.5 | – | –

— patent US4223036A, “1-(1,3-Dioxolan-2-ylmethyl)-1H-1,2,4-triazoles” (Janssen Pharmaceutica N.V., priority 1979, dated 1980)
